This passage reports IC50 results from patent US20240025856A1, “1,2,3,4-TETRAHYDROQUINOLINE DERIVATIVES AS INHIBITORS OF THE YAP/TAZ-TEAD ACTIVATION FOR TREATING CANCER” (KATHOLIEKE UNIVERSITEIT LEUVEN, priority 2020, published 2024).

For this assay, the system named is YAP/TAZ-TEAD transcription. Briefly: Reporter gene assay for measuring the inhibition of YAP/TAZ-TEAD transcription (TEAD-responsive element luciferase reporter in Hek293T cells). It is filed as cell-based. Conditions: Homo sapiens, HEK-293T, 24 h, Hek293T cells transiently transfected with TEAD-responsive element luciferase reporter; 24 hours incubation. In short, it runs like this:
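Hek293T cells transiently transfected with a TEAD-responsive element luciferase reporter, plated onto pre-diluted compounds and incubated 24 h at 37 °C/5% CO2. Luminescence read after SteadyLite addition; % inhibition from RLU relative to vehicle (0%) and a positive control inhibitor (100%), giving IC50.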
In general, IC50 refers to the concentration at which inhibition is half-maximal. For the molecule `CCC(=O)NC1Cc2c(Nc3cccnc3)cccc2N(c2ccc(C(F)(F)F)cc2)C1` (stereo not shown) [compound 072, N-(5-(pyridin-3-ylamino)-1-(4-(trifluoromethyl)phenyl)-1,2,3,4-tetrahydroquinolin-3-yl)propionamide], the IC50 is 1000 to 20000 nM. For the molecule `C=CC(=O)NC1Cc2c(NC(=O)OC(C)(C)C)cccc2N(c2ccc(C(F)(F)F)cc2)C1` (stereo not shown) [compound 074, tert-butyl (3-acrylamido-1-(4-(trifluoromethyl)phenyl)-1,2,3,4-tetrahydroquinolin-5-yl)carbamate], the half-inhibitory concentration (IC50) is under 1000 nM. The same measure for `C=CC(=O)NC1Cc2c(NC(C)=O)cccc2N(c2ccc(C(F)(F)F)cc2)C1` (stereo not shown) [compound 076, N-(5-acetamido-1-(4-(trifluoromethyl)phenyl)-1,2,3,4-tetrahydroquinolin-3-yl)acrylamide]: under 1000 nM; for `C=CC(=O)NC1Cc2c(C(=O)O)cccc2N(c2ccc(C(F)(F)F)cc2)C1` (stereo not shown) [compound 079, 3-acrylamido-1-(4-(trifluoromethyl)phenyl)-1,2,3,4-tetrahydroquinoline-5-carboxylic acid]: under 1000 nM; for `C=CC(=O)NC1Cc2cnccc2N(c2ccc(C(F)(F)F)cc2)C1` (stereo not shown) [compound 082, N-(1-(4-(trifluoromethyl)phenyl)-1,2,3,4-tetrahydro-1,6-naphthyridin-3-yl)acrylamide]: 1000 to 20000 nM.

`C=CC(=O)NCC1Cc2ccccc2N(c2ccccc2)C1` (stereo not shown) [compound 085, N-((1-phenyl-1,2,3,4-tetrahydroquinolin-3-yl)methyl)acrylamide]: the IC50 is under 1000 nM.

`C=CC(=O)NCC1Cc2ccccc2N(c2cccc(C(F)(F)F)c2)C1` (stereo not shown) [compound 086, N-((1-(3-(trifluoromethyl)phenyl)-1,2,3,4-tetrahydroquinolin-3-yl)methyl)acrylamide] displayed an IC50 of under 1000 nM.

The molecule `C=CC(=O)NCC1Cc2ccccc2N(c2ccc(C(C)C)cc2)C1` (stereo not shown) [compound 087, N-((1-(4-isopropylphenyl)-1,2,3,4-tetrahydroquinolin-3-yl)methyl)acrylamide] returned a half-maximal inhibitory concentration (IC50) of under 1000 nM. For `C=CC(=O)NCC1Cc2ccccc2N(c2cccc(C(C)C)c2)C1` (stereo not shown) [compound 088, N-((1-(3-isopropylphenyl)-1,2,3,4-tetrahydroquinolin-3-yl)methyl)acrylamide], the 50% inhibitory concentration (IC50) is under 1000 nM. The same measure for `C=CC(=O)NCC1Cc2ccccc2N(c2ccc(Cl)cc2)C1` (stereo not shown) [compound 089, N-((1-(4-chlorophenyl)-1,2,3,4-tetrahydroquinolin-3-yl)methyl)acrylamide]: under 1000 nM. Turning to `C=CC(=O)NCC1Cc2ccccc2N(c2cccc(OC)c2)C1` (stereo not shown) [compound 090, N-((1-(3-methoxyphenyl)-1,2,3,4-tetrahydroquinolin-3-yl)methyl)acrylamide], the half-maximal inhibitory concentration (IC50) was under 1000 nM. The same measure for `C=CC(=O)NCC1Cc2ccccc2N(c2ccc(OC)cc2)C1` (stereo not shown) [compound 091, N-((1-(4-methoxyphenyl)-1,2,3,4-tetrahydroquinolin-3-yl)methyl)acrylamide]: under 1000 nM; for `C=CC(=O)NCC1Cc2ccccc2N(c2ccc(-c3ccccc3)cc2)C1` (stereo not shown) [compound 092, N-((1-([1,1′-biphenyl]-4-yl)-1,2,3,4-tetrahydroquinolin-3-yl)methyl)acrylamide]: under 1000 nM; for `C=CC(=O)NCC1Cc2ccccc2N(c2cccc(-c3ccccc3)c2)C1` (stereo not shown) [compound 093, N-((1-([1,1′-biphenyl]-3-yl)-1,2,3,4-tetrahydroquinolin-3-yl)methyl)acrylamide]: over 20000 nM. Molecule `C=CC(=O)NCC1Cc2ccccc2N(c2ccc(C(F)(F)F)nc2)C1` (stereo not shown) [compound 094, N-((1-(6-(trifluoromethyl)pyridin-3-yl)-1,2,3,4-tetrahydroquinolin-3-yl)methyl)acrylamide] gave an IC50 of under 1000 nM. In the case of `C=CC(=O)NCC1Cc2ccccc2N(c2ccc(C(F)(F)F)cn2)C1` (stereo not shown) [compound 095] it was under 1000 nM. The same measure for `C=CC(=O)NCC1Cc2ccccc2N(c2ccnc(C(F)(F)F)c2)C1` (stereo not shown) [compound 096, N-((1-(2-(trifluoromethyl)pyridin-4-yl)-1,2,3,4-tetrahydroquinolin-3-yl)methyl)acrylamide]: under 1000 nM; for `C=CC(=O)NCC1Cc2ccccc2N(c2ccc(F)cc2)C1` (stereo not shown) [compound 097, N-((1-(4-fluorophenyl)-1,2,3,4-tetrahydroquinolin-3-yl)methyl)acrylamide]: under 1000 nM; for `CCC(=O)NCC1Cc2ccccc2N(c2ccc(C(F)(F)F)cc2)C1` (stereo not shown) [compound 098, N-((1-(4-(trifluoromethyl)phenyl)-1,2,3,4-tetrahydroquinolin-3-yl)methyl)propionamide]: under 1000 nM. On to `CC(C)=CC(=O)NCC1Cc2ccccc2N(c2ccc(C(F)(F)F)cc2)C1` (stereo not shown) [compound 099, 3-methyl-N-((1-(4-(trifluoromethyl)phenyl)-1,2,3,4-tetrahydroquinolin-3-yl)methyl)but-2-enamide], for which the IC50 lay in the range of 1000 to 20000 nM. In the case of `C=CC(=O)NCC1Cc2ccccc2N(c2ccc(C(=O)NC)cc2)C1` (stereo not shown) [compound 100, 4-(3-(acrylamidomethyl)-3,4-dihydroquinolin-1(2H)-yl)—N-methylbenzamide] it was over 20000 nM; in that of `C=CC(=O)NCC1Cc2ccccc2N(c2ccc(F)c(F)c2)C1` (stereo not shown) [compound 101, N-((1-(3,4-difluorophenyl)-1,2,3,4-tetrahydroquinolin-3-yl)methyl)acrylamide], under 1000 nM. On to `C=CC(=O)NCC1Cc2ccccc2N(c2ccc(F)cc2F)C1` (stereo not shown) [compound 102, N-((1-(2,4-difluorophenyl)-1,2,3,4-tetrahydroquinolin-3-yl)methyl)acrylamide], for which the IC50 is under 1000 nM. In the case of `C=CC(=O)NCC1Cc2ccccc2N(c2ccc3cc[nH]c3c2)C1` (stereo not shown) [compound 104, N-((1-(1H-indol-6-yl)-1,2,3,4-tetrahydroquinolin-3-yl)methyl)acrylamide] it was under 1000 nM. Molecule `C=CC(=O)NCC1Cc2ccccc2N(c2ccc(C(F)F)cc2)C1` (stereo not shown) [compound 105, N-((1-(4-(difluoromethyl)phenyl)-1,2,3,4-tetrahydroquinolin-3-yl)methyl)acrylamide] gave an IC50 of under 1000 nM. The same measure for `C=CC(=O)NCC1Cc2ccccc2N(c2ccc(OC(F)(F)F)cc2)C1` (stereo not shown) [compound 106, N-((1-(4-(trifluoromethoxy)phenyl)-1,2,3,4-tetrahydroquinolin-3-yl)methyl)acrylamide]: under 1000 nM; for `C=CC(=O)NCC1Cc2ccccc2N(c2ccc(OC(F)F)cc2)C1` (stereo not shown) [compound 107, N-((1-(4-(difluoromethoxy)phenyl)-1,2,3,4-tetrahydroquinolin-3-yl)methyl)acrylamide]: under 1000 nM; for `C=CC(=O)NCC1Cc2ccccc2N(c2cccc(F)c2)C1` (stereo not shown) [compound 108, N-((1-(3-fluorophenyl)-1,2,3,4-tetrahydroquinolin-3-yl)methyl)acrylamide]: under 1000 nM. Molecule `C=CC(=O)NCC1Cc2ccccc2N(c2cccc(F)c2F)C1` (stereo not shown) [compound 109, N-((1-(2,3-difluorophenyl)-1,2,3,4-tetrahydroquinolin-3-yl)methyl)acrylamide] gave an IC50 of under 1000 nM. The molecule `C=CC(=O)NCC1Cc2ccccc2N(c2cc(F)ccc2F)C1` (stereo not shown) [compound 110, N-((1-(2,5-difluorophenyl)-1,2,3,4-tetrahydroquinolin-3-yl)methyl)acrylamide] showed a concentration for half-maximal inhibition (IC50) of under 1000 nM. The same measure for `C=CC(=O)NCC1Cc2ccccc2N(c2cc(F)cc(F)c2)C1` (stereo not shown) [compound 111, N-((1-(3,5-difluorophenyl)-1,2,3,4-tetrahydroquinolin-3-yl)methyl)acrylamide]: under 1000 nM. In turn, `C=CC(=O)NCC1Cc2ccccc2N(c2ccc(C(F)(F)F)c(F)c2)C1` (stereo not shown) [compound 112, N-((1-(3-fluoro-4-(trifluoromethyl)phenyl)-1,2,3,4-tetrahydroquinolin-3-yl)methyl)acrylamide] registered an IC50 of under 1000 nM. As to `C=CC(=O)NCC1Cc2ccccc2N(c2ccc(SC(F)(F)F)cc2)C1` (stereo not shown) [compound 114, N-((1-(4-((trifluoromethyl)thio)phenyl)-1,2,3,4-tetrahydroquinolin-3-yl)methyl)acrylamide], the 50% inhibitory concentration (IC50) was under 1000 nM. The same measure for `C=CC(=O)NCC1Cc2ccccc2N(c2cnc(C(F)(F)F)nc2)C1` (stereo not shown) [compound 115, N-((1-(2-(trifluoromethyl)pyrimidin-5-yl)-1,2,3,4-tetrahydroquinolin-3-yl)methyl)acrylamide]: under 1000 nM; for `C=CC(=O)NCC1Cc2ccccc2N(c2ccc(C)cc2C)C1` (stereo not shown) [compound 116, N-((1-(2,4-dimethylphenyl)-1,2,3,4-tetrahydroquinolin-3-yl)methyl)acrylamide]: under 1000 nM.

`C=CC(=O)NCC1Cc2ccccc2N(c2ccc(S(F)(F)(F)(F)F)cc2)C1` (stereo not shown) [compound 117, N-((1-(4-(pentafluoro-λ^6-sulfaneyl)phenyl)-1,2,3,4-tetrahydroquinolin-3-yl)methyl)acrylamide] came in with an IC50 of under 1000 nM. The same measure for `C=CC(=O)NCC1Cc2ccccc2N(C2CCCCC2)C1` (stereo not shown) [compound 118, N-((1-cyclohexyl-1,2,3,4-tetrahydroquinolin-3-yl)methyl)acrylamide]: under 1000 nM. `C#CC(=O)NCC1Cc2ccccc2N(c2ccc(C(F)(F)F)cc2)C1` (stereo not shown) [compound 119, N-((1-(4-(trifluoromethyl)phenyl)-1,2,3,4-tetrahydroquinolin-3-yl)methyl)propiolamide] yielded an IC50 of under 1000 nM. Molecule `CN(C)C/C=C/C(=O)NCC1Cc2ccccc2N(c2ccc(C(F)(F)F)cc2)C1` (stereo not shown) [compound 120, (E)-4-(dimethylamino)-N-((1-(4-(trifluoromethyl)phenyl)-1,2,3,4-tetrahydroquinolin-3-yl)methyl)but-2-enamide] returned an IC50 of under 1000 nM. In the case of `CS(=O)(=O)NCC1Cc2ccccc2N(c2ccc(C(F)(F)F)cc2)C1` (stereo not shown) [compound 121, N-((1-(4-(trifluoromethyl)phenyl)-1,2,3,4-tetrahydroquinolin-3-yl)methyl)methanesulfonamide] it was under 1000 nM.
